Assay results taken from patent US20040033987A1, “Phospholipid derivatives of valproic acid and mixtures thereof” (priority 2003, published 2004).
Entries after “also recorded” stand apart in the source; their conditions may differ.

Assays:
[1] = Pharmacokinetics study in humans: plasma levels by LC-MS/MS after a single oral administration; format: in vivo, human; conditions: for time at which the peak concentration in the plasma was reached / terminal plasma half-life (t1/2): human plasma, single oral administration of C16/C18-DP-VPA (13%:87% w/w); for terminal plasma half-life (t1/2): calculated from plasma concentration-time profiles; for plasma concentration: human
Protocol: In order to assess the pharmacokinetic properties of the C16-DP-VPA and C18-DP-VPA compounds, the plasma levels of these compounds were monitored in human subjects.
Healthy male volunteers, 18-40 year old, (7 individuals for each dose tested) received, by a single oral administration, 0.3125 g, 0.625 g or 1.25 g of C16/C18-DP-VPA mixture at a ratio of C16/C18=13%: 87% (w/w). Blood samples, 10 ml each, were drawn from each individual at the time points after the administration of the drug, as indicated. The samples were centrifuged at 4° C. at 1100 g for 10 minutes immediately after collection. Plasma levels of C16-DP-VPA and C18-DP-VPA were determined using a LC-MS/MS technique. The plasma concentration profiles of C16-DP-VPA and C18-DP-VPA as monitored for 24 hours following a single oral administration 0.625 g of C16/C18-DP-VPA are shown, respectively, in FIGS. 2A and 2B.

[2] = compared with sodium valproate; from Ser. No. 08/479,959 and WO 94/22483; listed as TVA 16; cited from earlier work
[3] = test system: pentylenetetrazol (PTZ) induced seizure; test: PTZ-induced seizures test in mice; format: in vivo, CD-1 mice; conditions: for time of peak activity / maximal therapeutic effect: PTZ-induced seizures, s.c. equivalent to 40 mg/kg VPA; for % Protection / Second seizure (n//N): s.c. pre-treatment equivalent to 40 mg/kg VPA
Protocol: The anti-epileptic efficacies of C16-DP-VPA, C18-DP-VPA and mixtures comprising both C16-DP-VPA and C18-DP-VPA were evaluated in mice. The protective effect of the compounds was compared at different time points following chemical seizure induction by pentylenetetrazol (PTZ).
The pentylenetetrazol (PTZ) induced seizure model in mice is an established animal model system for epilepsy. Subcutaneous injection of PTZ into control animals results in the following sequence of events: myoclonic jerks within 1-2 mins, followed by clonic and clonic-tonic seizures each lasting approximately 5-10 secs with the severity of seizures increasing with time for up to 30 mins. 80% of the first seizures are-observed within 5 mins, and 100% within 20 mins. The second seizures usually follow within 6-10 mins and subsequent seizures (if any) every 6 mins.
CD-1 mice (25-30 g) were pre-treated by subcutaneous (s.c.) injection of either C16-DP-VPA or C18-DP-VPA or a mixture thereof. The amounts used were equivalent to 40 mg/kg VPA. After different times as indicated, 1, 2 or 4 hours, a convulsive dose of pentylenetetrazol (85-100 mg/kg) was subcutaneously injected into the mice. The animals were monitored for one hour following the PTZ administration for the occurrence of episodes of clonic spasms persisting for at least 5 sec.

[4] = 1 hour after single oral 0.625 g C16/C18-DP-VPA
[5] = 3 hours after single oral 0.625 g C16/C18-DP-VPA
[6] = 6 hours after single oral 0.625 g C16/C18-DP-VPA
[7] = 8 hours after single oral 0.625 g C16/C18-DP-VPA
[8] = 10 hours after single oral 0.625 g C16/C18-DP-VPA
[9] = 12 hours after single oral 0.625 g C16/C18-DP-VPA

Row | SMILES | time at which the peak concentration in the plasma was reached [1] | terminal plasma half-life (t1/2) [1] | plasma concentration [1, 4] | plasma concentration [1, 5] | plasma concentration [1, 6] | plasma concentration [1, 7] | plasma concentration [1, 8] | plasma concentration [1, 9] | anticonvulsant activity [2] | time of peak activity / maximal therapeutic effect [3] | % Protection ([3]; PTZ after 1 h) | Second seizure (n//N) ([3]; PTZ after 1 h) | % Protection ([3]; PTZ after 2 h) | Second seizure (n//N) ([3]; PTZ after 2 h) | % Protection ([3]; PTZ after 4 h) | Second seizure (n//N) ([3]; PTZ after 4 h)
1 | CCCCCCCCCCCCCCCC(=O)OC[C@H](COP(=O)([O-])OCC[N+](C)(C)C)OC(=O)C(CCC)CCC [C16-DP-VPA, 1-Palmitoyl-2-valproyl-sn-glycero-3-phosphatidylcholine] | 6 h | 14.0 ± 0.6 h | 0.013 ± 0.034 µg/mL | 0.167 ± 0.094 µg/mL | 0.397 ± 0.172 µg/mL | 0.385 ± 0.140 µg/mL | 0.368 ± 0.182 µg/mL | 0.318 ± 0.150 µg/mL | significant anticonvulsant activity; also recorded: more potent than sodium valproate | ≤ 1 h | 50% | 4/8 | 25% | 6/8 | 38% | 5/8
2 | CCCCCCCCCCCCCCCCCC(=O)OC[C@H](COP(=O)([O-])OCC[N+](C)(C)C)OC(=O)C(CCC)CCC [C18-DP-VPA, 1-Stearoyl-2-valproyl-sn-glycero-3-phosphatidylcholine] | 8 h | 8.3 ± 1.3 h | 0.000 ± 0.000 µg/mL | 0.058 ± 0.043 µg/mL | 0.818 ± 0.292 µg/mL | 1.175 ± 0.137 µg/mL | 0.949 ± 0.254 µg/mL | 0.698 ± 0.163 µg/mL |  | 4 h | 17% | 5/6 | 14% | 6/7 | 86% | 1/7
